Source: patent publication US20250163076A1, “SYNTHESIS OF BRUTON'S TYROSINE KINASE INHIBITORS” (JANSSEN PHARMACEUTICA NV, priority 2022, published 2025)
Values after ≈ are worked out from the molar mass of the structure shown. Where two headings read alike, the source gives them in different places.

Key:
BTK = BTK (Homo sapiens, UniProt Q06187); test: BTK covalent inhibition kinetics (KI, kinact, kinact/KI); assay type: biochemical; conditions: Table 4; for Ki / kinact: average of 2 independent determinations (± SD)
Experimental: The development of the structure-activity relationship was conducted by characterizing the non-covalent affinity of each inhibitor for BTK (KI) and the first order rate constant for irreversible covalent bond formation (kinact). The second order rate constant kinact/KI ratio is used to assess the covalent inhibitor potency because it is independent of incubation time and substrate concentrations (Copeland, R. A. Evaluation of Enzyme Inhibitors in Drug Discovery: a Guide for Medicinal Chemists and Pharmacologists; 2nd ed.; Wiley: Hoboken, N.J., 2013).

[1] = Aqueous solubility at pH 2 and pH 7; assay type: physicochemical; conditions: Table 4
[2] = Human liver microsomes T1/2; assay type: in vitro ADME; conditions: human, liver microsomes; Table 4
[3] = aqueous medium, aqueous buffer, pH 7, read-out: Solubility pH 7
[4] = aqueous medium, simulated gastric fluid, pH 2, read-out: Solubility pH 2

Sequence of BTK (Q06187 whole entry): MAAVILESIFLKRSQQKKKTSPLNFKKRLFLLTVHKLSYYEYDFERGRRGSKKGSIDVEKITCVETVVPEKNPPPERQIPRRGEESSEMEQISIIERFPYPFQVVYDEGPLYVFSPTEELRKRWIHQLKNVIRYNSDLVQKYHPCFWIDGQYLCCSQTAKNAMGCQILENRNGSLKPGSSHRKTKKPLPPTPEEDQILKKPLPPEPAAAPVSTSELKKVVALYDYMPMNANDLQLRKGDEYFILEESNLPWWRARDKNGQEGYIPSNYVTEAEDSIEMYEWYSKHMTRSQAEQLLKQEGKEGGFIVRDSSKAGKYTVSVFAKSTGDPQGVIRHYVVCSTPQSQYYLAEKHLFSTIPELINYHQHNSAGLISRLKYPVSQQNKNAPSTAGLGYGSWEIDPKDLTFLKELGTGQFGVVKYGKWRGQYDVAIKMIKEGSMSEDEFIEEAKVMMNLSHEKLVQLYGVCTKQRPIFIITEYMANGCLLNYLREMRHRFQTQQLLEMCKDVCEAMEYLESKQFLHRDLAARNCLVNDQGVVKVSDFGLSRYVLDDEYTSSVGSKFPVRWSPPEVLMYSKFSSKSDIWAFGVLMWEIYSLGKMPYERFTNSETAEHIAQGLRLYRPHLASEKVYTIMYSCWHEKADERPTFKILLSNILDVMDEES

Ki (BTK) [nM]	kinact (BTK) [s⁻¹]	kinact/KI (BTK; read-out: kinact/KI) [M⁻¹ s⁻¹]	Solubility [1, 3] [µM]	Solubility [1, 4] [µM]	half-life [2] [min]	kinact/KI (BTK) [M⁻¹ s⁻¹]	Solubility ([1]; aqueous medium at pH 2, simulated gastric fluid, pH 2, read-out: Solubility pH 2) [µM]	Solubility ([1]; aqueous medium at pH 7, aqueous buffer, pH 7, read-out: Solubility pH 7) [µM]	SMILES
22.2 ± 3.3	0.000307	13800 ± 430	< 4	15 (≈ 8.2 µg/mL)	< 4				C=CC(=O)N1CCCC(NC(=O)c2sc3nccc4c3c2NC(=O)N4c2cnc(OC3CCCC3)cc2C)C1 (stereo not shown) [Compound G]
208 ± 15	0.000345	1660	68 (≈ 35.4 µg/mL)	119 (≈ 62 µg/mL)	19	1660 ± 62			C=CC(=O)N1CCCC(NC(=O)c2sc3nccc4c3c2NC(=O)N4c2cnc(OC(C)C)cc2C)C1 (stereo not shown) [Compound I]
354 ± 29	0.000278	786 ± 63	4 (≈ 2.16 µg/mL)	18 (≈ 9.73 µg/mL)	6				C=CC(=O)N1CCCC(NC(=O)c2sc3nccc4c3c2NC(=O)N4c2ccc(Oc3ccccc3)nc2)C1 (stereo not shown) [D]
69.9 ± 0.2	0.000333	4770 ± 7450	9 (≈ 4.99 µg/mL)	16 (≈ 8.87 µg/mL)	4				C=CC(=O)N1CCCC(NC(=O)c2sc3nccc4c3c2NC(=O)N4c2ncc(Oc3ccccc3)cc2C)C1 (stereo not shown) [E]
64 ± 14	0.000316	5000 ± 560	4 (≈ 2.13 µg/mL)	10 (≈ 5.33 µg/mL)	< 4				C=CC(=O)N1CCCC(NC(=O)c2sc3nccc4c3c2NC(=O)N4c2cnc(OC3CCC3)cc2C)C1 (stereo not shown) [H]
145 ± 20	0.000319	2220 ± 272			6		350 (≈ 182 µg/mL)	23 (≈ 11.9 µg/mL)	C=CC(=O)N1CCCC(NC(=O)c2sc3nccc4c3c2NC(=O)N4c2cnc(CC(C)C)cc2C)C1 (stereo not shown) [J]
